Source: US11198761B2, “Biodegradable polyionenes” (AGENCY FOR SCIENCE, TECHNOLOGY AND RESEARCH, priority 2017, dated 2021)

Legend:
[1] = system: K. pneumoniae 8637; experiment: Efficacy (ED50/ED95) in K. pneumoniae 8637-induced pneumonia; assay type: in vivo; conditions: immunosuppressed mice, intraperitoneally once daily for 3 days, survival over 5 days, BLISS method
Experimental: ICR mice (female, 7 weeks old, 24-26 mg) were used for the in vivo studies. Immunosuppression was induced by intraperitoneal injection of 200 mg/Kg cyclophosphamide (Hengrui Corp, Jiangsu Province, P. R. China) 4 days prior to infection. Mice were anesthetized by intra-peritoneal injection of 1% pentobarbital (40 mg/kg, Sigma).
The immunosuppression of mice was induced as described above. Overnight cultures of K. pneumoniae 8637 were harvested and suspended in PBS. Before instillation with K. pneumoniae 8637, the mice were anesthetized using an intraperitoneal injection with 1% pentobarbital (40 mg/kg). Each of the immunosuppressed mice was infected intranasally with 0.03 mL of the bacterial suspension at designated doses (i.e. 1×10^9, 1.5×10^9, 2.3×10^9, 3.5×10^9, 5.3×10^9, 8.0×10^9 CFU/ml, four mice per group). The minimum lethal dose was defined as the lowest dose, which was sufficient to cause 100% mortality. It was determined from the survival rate of mice at 5 days post-infection by the BLISS method.
The number of surviving mice in each group was recorded for 5 days to assess ED50 by the BLISS method.

[2] = system: K. pneumoniae 8637; experiment: Survival of K. pneumoniae 8637-infected mice; assay type: in vivo; conditions: 2.0 mg/kg intraperitoneally once daily for 3 days, five days, n=10
Experimental: ICR mice (female, 7 weeks old, […]) were used for the in vivo studies. Immunosuppression was induced by intraperitoneal injection of 200 mg/Kg cyclophosphamide (Hengrui Corp, Jiangsu Province, P. R. China) 4 days prior to infection. Mice were anesthetized by intra-peritoneal injection of 1% pentobarbital (40 mg/kg, Sigma).
To investigate the in vivo antibacterial efficacy of P-1a-1 (6037B), a pneumonia mouse model was established. The immunosuppression of mice was induced as described above. Overnight cultures of K. pneumoniae 8637 were harvested and suspended in PBS. Before instillation with K. pneumoniae 8637, the mice were anesthetized using an intraperitoneal injection with 1% pentobarbital (40 mg/kg). […] It was determined from the survival rate of mice at 5 days post-infection by the BLISS method.
To further determine the in vivo therapeutic efficacy of P-1a-1 (6037B), survival of the K. pneumoniae 8637-infected mice was monitored with and without treatment. […] After being anesthetized, each of the immunosuppressed mice was inoculated intranasally with 0.03 mL of bacterial suspension at the minimum lethal dose determined above. […] The mice were monitored for a period of five days, and the number of surviving mice in each group was recorded. […]

[3] = system: S. aureus (ATCC No. 6538); experiment: MIC, broth microdilution; assay type: cell-based, Staphylococcus aureus; conditions: Gemini-surfactant series S; 18 hours, 37° C.
Experimental: (§1) Bacterial and fungal samples were inoculated according to ATCC's requirement. Briefly, bacteria and fungi were grown in Mueller Hinton Broth (MHB) at 37° C. and room temperature, respectively overnight to allow the microbes to enter the log growth phase with constant 100 rpm shaking. Minimum inhibitory concentration (MIC) of the polymers was determined using the broth microdilution method. 100 μL of 20% v/v water-containing broth with various polymer or Gemini-surfactant concentrations was first added into each well of a 96-well tissue culture plate. The inoculated overnight microbe solution was first diluted to an optical density (O.D.) reading of 0.07 using a microplate reader (TECAN, Switzerland). This will correspond to 3×10^8 CFU/mL based on the McFarland 1 standard solution (CFU=colony forming units). The microbe solution was further diluted 1000 times to achieve a final 3×10^5 CFU/mL. To each well, an equal volume of diluted microbes solution was added and incubated at 37° C. for 18 hours for bacteria samples and at room temperature for 42 hours for fungi samples. There were 6 replicates for each concentration tested, with negative control being microbes added into broth containing 20% v/v deionized water. MIC was taken as the lowest concentration at which there was no observable microbe growth when measured by the microplate reader.

[4] = system: S. aureus, E. coli, P. aeruginosa, C. albicans; experiment: Killing kinetics, several strains together; assay type: cell-based
Experimental: 600 μL of 3×10^5 CFU/mL microbial suspension was added to each concentration of the polymer. […] 20 μL of the diluted microbial suspension was then plated onto agar plates and incubated for 24 hours and 42 hours at 37° C. and room temperature for bacteria and fungi respectively, then manually counted for CFU.

[5] = system: S. aureus biofilms; experiment: Biofilm biomass assay (safranin O); assay type: cell-based, Staphylococcus aureus; conditions: 18 hours treatment
Experimental: (§2) The bacteria stock was diluted in Mueller Hinton Broth (MHB) to get an optical density (OD) reading of 0.07 at 600 nm. 48 wells of a 96 flat-well plate were plated with 100 μL of bacteria suspension each. The plate was then incubated at 37° C. Every day over the next 7 days, MHB was carefully removed from the plate so as not to disturb the biofilm at the bottom of the well, and replaced with 100 μL of fresh MHB to each well.
(§3) After the biofilm was cultured, at the end of 7 days, MHB was removed from the wells. The biofilms were washed carefully with PBS 3 times to remove planktonic cells. The surfactant was weighed in a micro-centrifuge tube, and the weighed sample was diluted to 10000 mg L^−1 using distilled water. Serial dilution was conducted to obtain surfactant solutions of concentrations 100 mg L^−1, 70 mg L^−1, 50 mg L^−1, 35 mg L^−1, 25 mg L^−1, 20 mg L^−1, and 10 mg L^−1. The solvent was 20% distilled water and 80% MHB for each solution. The control was 20% distilled water and 80% MHB without surfactant. The surfactant solutions of different concentrations were added to the wells, 100 μL into each, with 6 replicates for each concentration. The plate was incubated at 37° C. for 18 hours. […] At the end of the incubation period, the optical density (OD) reading of the plate was taken at 550 nm.

[6] = system: P. aeruginosa (ATCC No. 9027); experiment: MIC, broth microdilution; assay type: cell-based, Pseudomonas aeruginosa; conditions: Gemini-surfactant series S; 18 hours, 37° C.
Experimental: as §1

[7] = system: S. aureus biofilms; experiment: XTT assay for cell viability of biofilms; assay type: cell-based, Staphylococcus aureus; conditions: 18 hours treatment
Experimental: as §2
(§4) After the biofilm was cultured, at the end of 7 days, MHB was removed from the wells. The biofilms were washed carefully with PBS 3 times to remove planktonic cells. The surfactant was weighed in a micro-centrifuge tube, and the weighed sample was diluted to 10,000 mg L^−1 using distilled water. Serial dilution was conducted to obtain surfactant solutions having concentrations of 100 mg L^−1, 70 mg L^−1, 50 mg L^−1, 35 mg L^−1, 25 mg L^−1, 20 mg L^−1, and 10 mg L^−1. The solvent was 20% distilled water and 80% MHB for each solution. The control was 20% distilled water and 80% MHB without surfactant. The surfactant solutions of different concentrations were added to the wells, 100 μL into each, with 6 replicates for each concentration. The plate was then incubated at 37° C. for 18 hours. […] At the end of the incubation period, the optical density (OD) reading of the plate was taken at 490 nm.

[8] = system: E. coli (ATCC No. 25922); experiment: MIC, broth microdilution; assay type: cell-based, Escherichia coli; conditions: Gemini-surfactant series S; 18 hours, 37° C.
Experimental: as §1

[9] = system: rat red blood cells (rRBCs); experiment: Hemolysis assay; assay type: cell-based; conditions: Gemini-surfactant series S; 1 hour, 37° C.
Experimental: Freshly obtained rat red blood cells (rRBC) from the Animal Handling Unit of Biomedical Research Center (Singapore) was used to test the hemolytic activity of the polymers and Gemini-surfactants. The rRBC was diluted to 4% v/v with phosphate-buffered saline (PBS) and added to an equal volume of 0.2% v/v Triton-X solution. A microplate reader was used to measure the optical density (O.D.) reading to make sure the value is between 0.5 and 0.6. An equal volume of different polymer or Gemini-surfactant concentrations was added to the diluted blood and incubated for 1 hour at 37° C. The samples were centrifuged at 1000 g at 4° C. for 5 minutes and 100 μL of the supernatant was collected and transferred to a 96-well tissue culture plate. There were 4 replicates for each concentration. Haemoglobin release was measured using the microplate reader at 576 nm. rRBCs treated with PBS were used as the […] control, while those treated with 0.2% v/v Triton-X was used as the […] control.
Percentage of hemolysis was calculated as follows: Hemolysis (%)═[(O.D.576 nm of the treated sample−O.D.576 nm of negative control)/(O.D.576 nm of positive control−O.D.576 nm of negative control)]×100%
HC50 was taken as the polymer concentration at which the polymer causes 50% hemolysis.

[10] = system: E. coli biofilms; experiment: XTT assay for cell viability of biofilms; assay type: cell-based, Escherichia coli; conditions: 18 hours treatment
Experimental: as §2, §4

[11] = system: C. albicans (ATCC No 10231); experiment: MIC, broth microdilution; assay type: cell-based, Candida albicans; conditions: Gemini-surfactant series S; 42 hours, room temperature
Experimental: as §1

[12] = system: E. coli biofilms; experiment: Biofilm biomass assay (safranin O); assay type: cell-based, Escherichia coli; conditions: 18 hours treatment
Experimental: as §2, §3

[13] = system: S. aureus, E. coli, P. aeruginosa, C. albicans; experiment: Killing efficiency test (CFU on agar after MIC testing); assay type: cell-based; conditions: at MIC and 2×MIC, all the microbes
Experimental: After MIC testing, all solutions from the control, ½MIC, MIC and 2MIC wells were collected and subjected to a series of ten-fold dilution. 20 μL of the diluted microbe solution was streaked onto pre-casted agar plates using LB+1.5% agar from the first Base. Agar plates with bacteria samples were incubated at 37° C. for 18 hours while those with fungi samples were incubated for 42 hours at room temperature before the CFUs were counted.

SMILES | ED50 ([1]; Klebsiella pneumoniae, 8637, ip) [mg/kg] | ED95 [1] [mg/kg] | survival [2] [%] | MIC SA [3] [ppm] | killing of all four strains of microbes ([4]; 16 and 32×MIC, 2 minutes) | concentration needed to completely eradicate the microbes ([4]; 30 seconds) [×MIC] | biomass of biofilm [5] | MIC PA [6] [ppm] | biofilm cell viability [7] | MIC EC [8] [ppm] | Hemolysis, HC50 [9] | biofilm cell viability [10] | MIC CA [11] [ppm] | biomass of biofilm [12] | reduction in the colony forming units (CFU) [13] [%]
C[C@@H](O)[C@H]1C(=O)N2C(C(=O)O)=C(SCCN=CN)C[C@H]12 [imipenem] | 2.75 | 20.0 | 60 | – | – | – | – | – | – | – | – | – | – | – | –
CCCCCCCCCC[N+](C)(C)Cc1ccc(C(=O)NCCCCCCNC(=O)c2ccc(C[N+](C)(C)CCCCCCCCCC)cc2)cc1.[Cl-].[Cl-] [S-3g] | – | – | – | 1 | completely killed | 64 | reduced in a dose dependent manner | 8 | reduced in a dose dependent manner | 1 | 125-250 ppm | reduced in a dose dependent manner | 2 | reduced in a dose dependent manner | ≥ 99.9
